From US20220192195A1, “HERBICIDAL COMPOSITIONS” (SYNGENTA CROP PROTECTION AG, priority 2019, published 2022)

Columns and labels:
Assay in all cases: Post-emergence efficacy (B1), compounds of Formula (I) alone, evaluated after 13 days
Format in all cases: in vivo
[1] = system: Euphorbia heterophylla (EPHHL); conditions: 500 g/Ha, post-emergence spray
Method: (§1) Seeds of a variety of test species were sown in standard laom-based soil in pots: Ipomoea hederacea (IPOHE), Euphorbia heterophylla (EPHHL), Chenopodium album (CHEAL), Amaranthus palmeri (AMAPA), Lolium perenne (LOLPE), Digitaria sanguinalis (DIGSA), Eleusine indica (ELEIN), Echinochloa crus-galli (ECHCG), Setaria faberi (SETFA). After cultivation for 14 days (post-emergence) under controlled conditions in a glasshouse (at 24/16° C., day/night; 14 hours light; 65% humidity), the plants were sprayed with an aqueous spray solution derived from the dissolution of the technical active ingredient Formula (I) in a small amount of acetone and a special solvent and emulsifier mixture referred to as IF50 (11.12% Emulsogen EL360 TM+44.44% N-methylpyrrolidone+44.44% Dowanol DPM glycol ether), to create a 50 g/I solution which was then diluted to required concentration using 0.25% or 1% Empicol ESC70 (Sodium lauryl ether sulphate)+1% ammonium sulphate as diluent. The delivery of the aqueous spray solution was via a laboratory track sprayer which delivered the aqueous spray composition at a rate of 200 litres per hectare, using a flat fan nozzle (Teejet 11002VS) and an application volume of 200 litre/ha (at 2 bar).
(§2) The test plants were then grown in a glasshouse under controlled conditions (at 24/16° C., day/night; 14 hours light; 65% humidity) and watered twice daily. After 13 days the test was evaluated (100=total damage to plant; 0=no damage to plant).

Eleusine indica (ELEIN) = conditions: 500 g/Ha, post-emergence spray
Method: as §1, §2

[2] = system: Amaranthus palmeri (AMAPA); conditions: 500 g/Ha, post-emergence spray
Method: as §1, §2

[3] = system: Chenopodium album (CHEAL); conditions: 500 g/Ha, post-emergence spray
Method: as §1, §2

[4] = system: Digitaria sanguinalis (DIGSA); conditions: 312 h, post-emergence spray, read-out: Control of weed species after post-emergence application: DIGSA (100=total damage to plant; 0=no damage to plant)
Method: as §1, §2

Lolium perenne (LOLPE) = conditions: 312 h, post-emergence spray, read-out: Control of weed species after post-emergence application: LOLPE (100=total damage to plant; 0=no damage to plant)
Method: as §1, §2

[5] = system: Ipomoea hederacea (IPOHE); conditions: 312 h, post-emergence spray, read-out: Control of weed species after post-emergence application: IPOHE (100=total damage to plant; 0=no damage to plant)
Method: as §1, §2

[6] = system: Echinochloa crus-galli (ECHCG); conditions: 312 h, post-emergence spray, read-out: Control of weed species after post-emergence application: ECHCG (100=total damage to plant; 0=no damage to plant)
Method: as §1, §2

Setaria faberi (SETFA) = conditions: 312 h, post-emergence spray, read-out: Control of weed species after post-emergence application: SETFA (100=total damage to plant; 0=no damage to plant)
Method: as §1, §2

| SMILES | Control of weed species after post-emergence application: EPHHL (100=total damage to plant; 0=no damage to plant) [1] | Control of weed species after post-emergence application: ELEIN (100=total damage to plant; 0=no damage to plant) (Eleusine indica (ELEIN)) | Control of weed species after post-emergence application: AMAPA (100=total damage to plant; 0=no damage to plant) [2] | Control of weed species after post-emergence application: CHEAL (100=total damage to plant; 0=no damage to plant) [3] | pest or weed control at 500 g/ha [4] [%] | pest or weed control at 500 g/ha (Lolium perenne (LOLPE)) [%] | pest or weed control at 500 g/ha [5] [%] | pest or weed control at 500 g/ha [6] [%] | pest or weed control at 500 g/ha (Setaria faberi (SETFA)) [%] |
| --- | --- | --- | --- | --- | --- | --- | --- | --- | --- |
| N[C@H](CC[n+]1ccc(-c2ncccn2)cn1)C(=O)O.O=C(O)C(F)(F)F.O=C([O-])C(F)(F)F [Compound 1.029, [(1R)-1-carboxy-3-(4-pyrimidin-2-ylpyridazin-1-ium-1-yl)propyl]-ammonium 2,2,2-trifluoroacetate] | 90 | 100 | 100 | 100 | – | – | – | – | – |
| N[C@@H](CC[n+]1ccc(-c2ncccn2)cn1)C(=O)O.O=C(O)C(F)(F)F.O=C([O-])C(F)(F)F [Compound 1.035, [(1S)-1-carboxy-3-(4-pyrimidin-2-ylpyridazin-1-ium-1-yl)propyl]-ammonium 2,2,2-trifluoroacetate] | 90 | 100 | 100 | 100 | 90 | 20 | 90 | 60 | 100 |
